Data: article PMC12409540 (ACS Omega, 2025)

Molecular target: Nurr1 protein (Homo sapiens, UniProt P43354)
Assay: SPR
Format: binding

Sequence of Nurr1 protein (P43354 whole entry): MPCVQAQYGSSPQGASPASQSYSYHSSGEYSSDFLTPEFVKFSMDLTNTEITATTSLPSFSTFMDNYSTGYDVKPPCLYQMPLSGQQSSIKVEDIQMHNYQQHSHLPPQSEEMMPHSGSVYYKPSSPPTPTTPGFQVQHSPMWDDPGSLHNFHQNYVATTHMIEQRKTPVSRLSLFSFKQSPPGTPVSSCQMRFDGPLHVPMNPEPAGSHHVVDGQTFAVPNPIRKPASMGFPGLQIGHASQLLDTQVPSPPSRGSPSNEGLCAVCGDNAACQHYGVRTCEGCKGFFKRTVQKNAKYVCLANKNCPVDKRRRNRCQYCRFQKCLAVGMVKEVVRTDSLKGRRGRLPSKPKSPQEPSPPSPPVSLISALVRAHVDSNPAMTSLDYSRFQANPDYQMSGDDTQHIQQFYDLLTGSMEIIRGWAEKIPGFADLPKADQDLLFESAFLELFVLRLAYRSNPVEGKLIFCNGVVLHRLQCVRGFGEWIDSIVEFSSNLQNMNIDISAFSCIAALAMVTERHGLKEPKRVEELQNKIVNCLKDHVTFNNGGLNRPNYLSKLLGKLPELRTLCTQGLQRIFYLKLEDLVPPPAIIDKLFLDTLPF

Row | Structure (SMILES) | Kd [µM]
1 | CCN(CC)Cc1cc(Nc2ccnc3cc(Cl)ccc23)ccc1O [amodiaquine] | 37
2 | CO[C@H]1C[C@H](O[C@H]2CC[C@]3(C=O)[C@H]4CC[C@]5(C)[C@@H](C6=CC(=O)OC6)CC[C@]5(O)[C@@H]4CC[C@]3(O)C2)O[C@H](C)[C@H]1O[C@@H]1O[C@H](CO[C@@H]2O[C@H](CO)[C@@H](O)[C@H](O)[C@H]2O)[C@@H](O)[C@H](O)[C@H]1O [compound 7, K-strophanthoside] | 23.1
